# Values joined by “and” are separate entries in the source; they are usually repeats but may differ in a detail not shown here. Equal values may be shown once.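 The compound was tested at five concentrations on cells cultured in 96-well plates, with a 48-hour exposure period. GI50 = concentration required for 50% inhibition of growth. TGI is the concentration that stops growth completely.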
# Assays:
# Experiment in all cases: NCI-60 cell line screen, 48 h
# A549 NSCLC = system: A549 NSCLC
# BT-549 breast = system: BT-549 breast
# COLO 205 colon = system: COLO 205 colon
# DU-145 prostate = system: DU-145 prostate
# K-562 leukemia = system: K-562 leukemia
# MDA-MB-435 = system: MDA-MB-435
# NCI-H522 lung = system: NCI-H522 lung
# SNB-19 CNS = system: SNB-19 CNS
Structure (SMILES),GI50 (A549 NSCLC),TGI (A549 NSCLC),GI50 (BT-549 breast),TGI (BT-549 breast),GI50 (COLO 205 colon),TGI (COLO 205 colon),GI50 (DU-145 prostate),TGI (DU-145 prostate),GI50 (K-562 leukemia),TGI (K-562 leukemia),GI50 (MDA-MB-435),TGI (MDA-MB-435),GI50 (NCI-H522 lung),TGI (NCI-H522 lung),GI50 (SNB-19 CNS),TGI (SNB-19 CNS)
O=C(CNc1ccc(Cl)cc1)Nc1ccc(-c2nc3ccccc3s2)cc1,8.1 µM,27.4 µM,1.83 µM,4.7 µM,3.49 µM,10.2 µM,3.49 µM,11.7 µM,1.95 µM,> 100 µM,3.91 µM,16.6 µM,1.53 µM,3.67 µM,6.03 µM,16.6 µM
CCCCCCCCCCCCOC1C(C(COC2OC(C3COC(C)(C)O3)C3OC(C)(C)OC23)NC(=O)Nc2ccc(C(=O)O)cc2)OC2OC(C)(C)OC21 (centres undefined),3.34 µM,10.9 µM,1.79 µM,4.59 µM,2.71 µM,9.05 µM,3.07 µM,9.79 µM,3.79 µM,> 100 µM,2.63 µM,7.91 µM,2.56 µM,6.93 µM,4.41 µM,14.6 µM
O=C1/C(=C/c2ccc(Br)cc2)COc2ccc(O)c(O)c21,1.77 µM,6.77 µM,1.2 µM,3 µM,1.53 µM,3.18 µM,1.31 µM,2.9 µM,0.282 µM,> 100 µM,0.427 µM,1.59 µM,0.158 µM,0.348 µM,1.38 µM,3.05 µM
O=C1NC(=O)C(c2cnc3ccccn23)=C1c1cn2c3c(cc(F)cc13)CN(C(=O)N1CCCCC1)CC2,7.85 µM,71.5 µM,14.7 µM,45 µM,11.4 µM,36.9 µM,12.7 µM,39.7 µM,3.39 µM,> 100 µM,14.6 µM,40.3 µM,13.9 µM,40.1 µM,22.8 µM,> 87.5 µM
CCN(CC)CCCC(CNc1ccnc2cc(Cl)ccc12)c1ccc(Cl)cc1 (centres undefined),2.06 µM and 1.63 µM,4.2 µM and 3.42 µM,1.79 µM and 1.75 µM,3.79 µM and 3.38 µM,1.38 µM and 0.212 µM,2.94 µM and 0.466 µM,3.84 µM and 4.19 µM,15.5 µM and 19 µM,0.289 µM and 0.227 µM,0.994 µM and 0.603 µM,1.19 µM and 0.204 µM,2.55 µM and 0.462 µM,1.69 µM and 0.859 µM,3.51 µM and 2.55 µM,1.9 µM and 2.73 µM,4.17 µM and 6.9 µM
O/N=C/C1C(OCc2ccccc2)C(OCc2ccccc2)C(OCc2ccccc2)CN1Cc1ccccc1 (centres undefined),–,25 µM and > 100 µM,–,37.1 µM,12.3 µM,25.2 µM,–,> 100 µM,–,36.6 µM and > 100 µM,14.1 µM and 3.14 µM,33.6 µM and 27.1 µM,–,> 100 µM,–,> 100 µM
COc1cc(C2CC(c3cccc(Br)c3)=NN2C(C)=O)cc(OC)c1OC (centres undefined),0.635 µM,> 100 µM,10.2 µM,40.7 µM,0.256 µM,0.802 µM,0.371 µM,6.61 µM,0.114 µM,11.7 µM,0.0514 µM,0.297 µM,0.286 µM,4.47 µM,0.514 µM,> 100 µM
[Cl][Hg][c]1cc(Br)cc(Br)c1,12.9 µM,30.4 µM,1.95 µM,5.47 µM,2.14 µM,4.97 µM,2.77 µM,10.6 µM,1.12 µM,3.81 µM,1.8 µM,3.82 µM,0.493 µM,2.27 µM,1.2 µM,2.51 µM
O=C(O)CCC(=O)c1ccc[nH]1,–,> 100 µM,–,> 100 µM,–,> 100 µM,–,> 100 µM,–,> 100 µM,–,> 100 µM,–,> 100 µM,–,> 100 µM
O=C(O)C1C2C=CC(O2)C1C(=O)NCc1ccccn1 (centres undefined),–,> 100 µM,–,> 100 µM,–,> 100 µM,–,> 100 µM,–,> 100 µM,–,> 100 µM,–,> 100 µM,–,> 100 µM
CCN(CC)c1ccc2c(c1)OC(N)=C(C#N)C2c1cc(OC)c2c(c1)OCO2 (centres undefined),0.0322 µM,> 100 µM,0.0661 µM,0.455 µM,0.0377 µM,0.424 µM,0.0358 µM,0.428 µM,< 0.0175 µM,4.32 µM,< 0.0108 µM,0.0276 µM,–,0.0474 µM,0.0418 µM,51 µM
Cc1nc2c(-c3cnc(N)nc3)nc(N3CCOCC3)nc2n1C(C)C,–,2.66 µM,–,2.22 µM,–,1.1 µM and 3.68 µM,–,> 100 µM,1 µM and 0.661 µM,> 100 µM,0.182 µM and 0.113 µM,1.32 µM and 1.16 µM,0.137 µM and 0.138 µM,–,–,> 100 µM
COc1ccc(-n2cc(-c3cc(OC)c(OC)c(OC)c3)c(C(=O)C(F)(F)F)c2C)cc1,28 µM,> 100 µM,56.2 µM,> 100 µM,65.2 µM,> 100 µM,> 100 µM,> 100 µM,22 µM,> 100 µM,43.3 µM,> 100 µM,20 µM,> 100 µM,> 100 µM,> 100 µM
